Measured values as given in US9301911B2, “Composition comprising tauroursodeoxycholic acid” (priority 2012, dated 2016).

Columns and labels:
collagenase = experiment: Inhibitory activity on collagenase (azocoll assay); type: biochemical; settings: for Comparative inhibitory activity: [collagenase-inhibitory percentage of TUDCA / that of UDCA]*100
Description: The inhibitory activities of tauroursodeoxycholic acid (TUDCA) and ursodeoxycholic acid (UDCA) on collagenase were evaluated according to an azocoll assay method. Azocoll, Azo dye-impregnated collagen, is not dissolved in Tris-buffer. […] Therefore, by reacting said test materials with azocoll and then measuring the respective absorbance, the inhibitory activities of said materials on collagenase can be determined.
2% Azocoll solution (200 μl) and a buffer solution (0.01 M Tris-HCl, 1 mM CaCl2, pH 7.8) (150 μl) were respectively added to the 6 test tubes to obtain the solutions (Solution A1 to A6). Each solution (100 μl) obtained by dissolving TUDCA or UDCA in 10% ethanol in various concentrations was added to the solutions A1 to A6, so as to obtain the final concentrations of 1.600 w/v %, 0.533 w/v %, and 0.178 w/v %, respectively. Collagenase (50 μl) having 100 ppm concentration was added to the respective test mixture, which was then stirred in a 37° C. incubator for 18 hours. Each test tube was centrifuged for 5 minutes. The supernatant was separated from each test tube and then added to a 96-well plate. The absorbance at 540 nm was measured by a spectrophotometer and then the activity of the test group was determined from the standard activity curve. The standard activity curve was separately prepared by adding 10, 25, 50, and 100 μl of collagenase to the azocoll solution.
The collagenase-inhibitory ratio of TUDCA to the collagenase-inhibitory ratio of UDCA was determined according to the following formula and the results thereof are shown in Table 1. Comparative inhibitory activity=[Collagenase-inhibitory percentage of TUDCA/Collagenase-inhibitory percentage of UDCA]*100

S. mutans = experiment: Antimicrobial activity against S. mutans (growth inhibition, O.D. 600 nm); type: cell-based, Streptococcus mutans
Description: We evaluated antimicrobial activities of TUDCA (PRODOTTI CHIMICI E ALIMENTARI S.p.A. Co., Italy), bamboo salt, xanthorrhiza oil (curcuma xanthorrhiza oil having 22-35% of xanthorrhizol, ‘Curcuma Xanthorrhiza Essential Oil’ extracted from Curcuma Xanthorrhiza Root, Daewoong Bio Inc.), and a mixture thereof, against S. Mutans. Briefly, to each well of a 96-well plate, were added 100 μl of BHI broth (Brain Heart Infusion broth, Sigma-Aldrich) and each test material in two times higher concentration than the concentration shown in the following Table 2. S. mutans was cultured in BHI broth (Brain Heart Infusion broth, Sigma-Aldrich) at 35° C. for 24 hours. Absorbance at 600 nm of the S. mutans-containing culture medium was adjusted to 0.063 to 0.12 and then the resulting culture medium was diluted to 1/500. The diluted S. Mutans-containing culture medium (100 μl) was added to each well of the 96-well plate. The 96-well plate was incubated at 35° C. for 24 hours, followed by measuring the O.D. values at 600 nm with a spectrophotometer for obtaining the respective growth inhibition percentage.
Antimicrobial activities against S. mutans were evaluated using TUDCA in a relatively low concentration. Using the same kinds of TUDCA, bamboo salt, and xanthorrhiza oil, the evaluations of antimicrobial activity were carried out in the same manners as in Example 2.

## C[C@H](CCC(=O)NCCS(=O)(=O)O)[C@H]1CC[C@H]2[C@@H]3[C@@H](O)C[C@@H]4C[C@H](O)CC[C@]4(C)[C@H]3CC[C@]12C [TUDCA, tauroursodeoxycholic acid]
collagenase; at the same concentration, in comparison with UDCA
  inhibitory activity against collagenase in comparison with UDCA: about two times more strong inhibitory activity against collagenase
collagenase; test material 0.178 w/v %
  Comparative inhibitory activity: 264.75%
collagenase; test material 0.533 w/v %
  Comparative inhibitory activity: 252.56%
collagenase; test material 1.600 w/v %
  Comparative inhibitory activity: 227.17%
S. mutans; Table 2, TUDCA 0.5 w/v %
  Growth inhibition: 38 ± 16%
S. mutans; Table 2, TUDCA 1 w/v %
  Growth inhibition: 51 ± 13%
S. mutans; Table 3, TUDCA 0.01 w/v %
  Growth inhibition: 13%
S. mutans; summary of Table 2
  growth-inhibition activity against S. mutans (in words): effective growth-inhibition activity
